From US6447801B1, “Anti-parasitic action of N,N-diethyl-m-toluamide (deet) and formulations that prolong its activity in the skin” (priority 1997, dated 2002)

Experiments:
cercariae of S. mansoni [1] = assay: Effect of DEET applied to the skin after exposure to S. mansoni infection in mice; type: in vivo, Schistosoma mansoni
Text: For in vivo animal experiments, male mice of the CD1 strain, weighing approximately 18-20 grams, purchased from Charles River Laboratories (Wilmington, Mass.) were used. The use of animals in these experiments were in compliance with the Animal Welfare Act and other Federal statues and regulations relating to animals as stated in the National Institute of Health publication: Guide for the Care and Use of Laboratory Animals. Mice were infected individually with schistosome cercariae via either tail skin or via shaved abdominal skin. For infection via tail skin, the mouse was restrained in a cage and the tail was dipped for 60 minutes in a tube containing 250-300 ^35S-labeled cercariae suspended in 10 ml of distilled water at room temperature. […]
To determine skin penetration and worm establishment, whole tail skin or the area of abdominal skin that was exposed to the cercariae as described above and the lungs were removed from each mouse on day seven after infection and processed for compressed organ autoradiography techniques as described previously (Li J W et al., Parasitology International 46: 55-65 (1997)). […] Following autoradiographic development, the dark spots (which represent reduced silver foci on film) were counted and percent worm establishment was calculated (number of spots/total number of cercariae used for infection X 100). […]

cercariae of S. mansoni [2] = assay: Wash-off tests with DEET and Lipodeet in schistosomiasis (mice); type: in vivo, Schistosoma mansoni
Experimental: After bathing, mice were allowed to dry completely. The abdominal skin of these mice was then exposed to 150 cercariae of S. mansoni labeled with ^35S-methionine. Degree of protection conferred by Lipodeet and DEET after the wash off treatment was evaluated by monitoring the entry of parasites into the skin by compressed organ autoradiography techniques as described earlier (Li et. al. Parasitology International 46:55-65, 1997).

Dermacetor variabilis = assay: Tick attachment to rabbit ear, Dermacetor variabilis; type: in vivo
Experimental: To determine the effect of DEET on tick attachment and feeding we used two species of ticks Amblyoma americanum and Dermacetor variabilis purchased from University of Oklahoma. Ticks were allowed to feed on the ears of male New Zealand white rabbits purchased from Charles River. For feeding, five ticks were introduced into a 60 μm sieve cell well (Fisher Scientific) which was attached to the ear of the rabbit with nail glue. Ticks were observed every 30 minutes for the first eight hours to assess skin attachment and feeding behavior. Tick attachment was defined as the minimum time required for 3 of the 5 ticks to attach to the ear. […] The observation was continued for 72 hours for both species of ticks. Separate rabbits were used for each species and for each treatment. […] All the ticks in this study were active until attachment.
In this series of experiments, the protective effect(s) of different concentrations of DEET and Lipodeet on the attachment of nymphs and adults of two species of ticks, A. americanum and D. variabilis, to the rabbit ear was evaluated. Experiments were set up wherein different concentrations (20% or 40% of DEET or Lipodeet were applied (0.2 ml of the samples to 10 cm^2 surface area), onto the dorsal side of the ear lobes of a rabbit. After allowing the preparation to dry for 30 min., sieve cups (Fisher Scientific, 1″ inner diameter) were then attached to the ear lobes using nail glue. Ten nymphs or five adult ticks were then introduced into the sieve cups every 24 hrs through a small slit made on the sieve membrane. Attachment of ticks to the skin was monitored every 24 hrs. for up to 72 hrs. after introduction of the ticks.
More than 60% of ticks used in our experiments were dead after contact with Lipodeet. Although a well-aerated sieve cup was used (1″ inner diameter), we initially thought that the tick mortality may be due to possible DEET vapor trapped within the sieve cup. Therefore, we designed experiments where one half of the surface area of skin within the sieve cup was treated with 40% Lipodeet and the other half was left untreated. Five adults ticks of A. americanum were then introduced into the sieve cups every 24 hrs. After 72 hrs., the sieve cups were removed.

[3] = Disposition of 14C-DEET and 14C-Lipodeet after skin application (skin, blood, urine, bedding radioactivity)
Experimental: In this series of experiments, 11.472 mg of ^14C-DEET of ^14C-Lipodeet (in 100 μl) was applied to 5 cm^2 area of the mice abdominal skin. At different time points (15 min, 30 min, 60 min, 2 hrs., 4 hrs., 24 hrs., 48 hrs. and 72 hrs.) after application, the whole area of skin where the lipodeet had been applied was collected, underlying tissue removed and the radioactivity measured in a Beckman β-counter. Samples of blood and urine were also collected at these time points from each mouse to measure the radioactivity (n=10 for each time point). […] In this study, we made observations only up to 72 hrs. […] There are two possibilities, (1) substantial quantities of both DEET and Lipodeet are absorbed systemically through the skin within 24 hrs., or (2) both the chemicals are lost in the bedding due to direct contact of the applied area to the bedding materials. The first hypothesis was tested by measuring ^14C levels in the blood and urine in these animals.

SMILES: CCN(CC)C(=O)c1cccc(C)c1 [DEET, N,N-diethyl-m-toluamide]
- protection (cercariae of S. mansoni [1]; 40% DEET applied 4 hrs or more after infection): no protection
- effectiveness in preventing the infection (cercariae of S. mansoni [1]; 40% DEET applied within 30 min after exposure to cercariae): 100%
- protective effect after wash-off (cercariae of S. mansoni [2]; 10%, five minutes of exposure to water, irrespective of water temperature): significantly (p<0.01) abolished the protective effects of DEET
- protective effect after wash-off (cercariae of S. mansoni [2]; concentration increased to 20%): slightly improved the retention of protective ability of DEET
- initial time with no tick attachment (Dermacetor variabilis; 10% DEET on rabbit ear, normal rabbits 4.5 hours): 7.0 h
- time effective in preventing attachment of adult ticks (Dermacetor variabilis; 20%, adults): up to 24 hrs
- time effective in preventing attachment of nymphs (Dermacetor variabilis; 20%, nymphs): up to 48 hrs
- effect of raising concentration, adult ticks (Dermacetor variabilis; 40% versus 20%, adults): slightly more effective at 48 hrs
- effect of raising concentration, nymphs (Dermacetor variabilis; 40% versus 20%, nymphs): no added advantage against nymphs
- amount in the superficial layers of the skin ([3]; 11.472 mg on 5 cm^2, by 24 hrs): nearly all of the DEET applied to the skin has been cleared from the superficial layers
- lost from the skin ([3]; during 4 to 24 hrs after application): 100%
